ChEMBL document CHEMBL6083234, “Discovery of novel 1,4-dicarbonylthiosemicarbazides as DNA gyrase inhibitors for the treatment of MRSA infection” (Eur J Med Chem, 2024)
pIC50: −log10 of the molar value. In brackets after ≈: the same amount, converted by molar mass.

Key:
Staphylococcus aureus [1] = assay: Antibacterial activity against Staphylococcus aureus ATCC 29213 assessed as inhibition of bacterial growth incubated for 18 to 24 hrs by broth microdilution method; type: functional; details: time 18-24 hrs
Staphylococcus aureus [2] = assay: Antibacterial activity against methicillin-resistant Staphylococcus aureus incubated for 24 hrs by CLSI protocol based broth microdilution method; type: functional
Topoisomerase IV = Topoisomerase IV (Staphylococcus aureus, UniProt P0C1S7+P0C1U9); assay: Inhibition of Staphylococcus aureus DNA topoisomerase 4 decatenation activity incubated for 1 hrs by ethidium bromide staining based analysis; type: protein-complex assay
Staphylococcus aureus [3] = assay: Antibacterial activity against Staphylococcus aureus ATCC 25923 incubated for 24 hrs by CLSI protocol based broth microdilution method; type: functional
DNA gyrase [4] = biological target: T1, DNA gyrase (Staphylococcus aureus, UniProt P0A0K8+P20831); assay: Inhibition of Staphylococcus aureus DNA gyrase supercoiling using supercoiled pBR322 DNA as substrate incubated for 60 mins by ethidium bromide staining based analysis; type: protein-complex assay
DNA gyrase [5] = biological target: T1, DNA gyrase; assay: Inhibition of Staphylococcus aureus DNA gyrase ATP hydrolysis activity using pBR322 DNA as substrate incubated for 30 mins in presence of ATP by ADP-Glo reagent based assay; type: protein-complex assay
[6] = Cytotoxicity against human HepG2 cells assessed as reduction in cell viability incubated for 48 hrs by CCK8 assay; type: toxicity, cell-based
[7] = Cytotoxicity against HUVEC cells assessed as reduction in cell viability incubated for 48 hrs by CCK8 assay; type: toxicity, cell-based; details: human
[8] = Selectivity index, ratio of CC50 for cytotoxicity against human HepG2 cells to MIC for antibacterial activity against Staphylococcus aureus ATCC 29213; type: toxicity, cell-based; details: read-out: Selectivity Index
[9] = Selectivity index, ratio of CC50 for cytotoxicity against HUVEC cells to MIC for antibacterial activity against Staphylococcus aureus ATCC 29213; type: toxicity, cell-based; details: human, read-out: Selectivity Index
Staphylococcus aureus [10] = assay: Antibacterial activity against methicillin-resistant Staphylococcus aureus (15 strains) assessed as inhibition of bacterial growth incubated for 18 to 24 hrs by broth microdilution method; type: functional; details: time 18-24 hrs
Staphylococcus aureus [11] = assay: Antibacterial activity against methicillin-resistant Staphylococcus aureus clinical isolate 16-1 infected in kunming mouse model assessed as survival rate at 10 mg/kg, iv pre-infected with bacteria for 10 mins followed by compound administration and measured for 7 days (reference value: 0 %); type: functional; details: 168 h, time 7 day
Staphylococcus aureus [12] = assay: Antibacterial activity against methicillin-resistant Staphylococcus aureus clinical isolate 16-1 infected in kunming mouse model assessed as survival rate at 5 mg/kg, iv pre-infected with bacteria for 10 mins followed by compound administration and measured for 7 days (reference value: 0 %); type: functional; details: 168 h, time 7 day
Staphylococcus aureus [13] = assay: Antibacterial activity against methicillin-resistant Staphylococcus aureus clinical isolate 16-1 infected in kunming mouse model assessed as survival rate at 3.5 mg/kg, iv pre-infected with bacteria for 10 mins followed by compound administration and measured for 7 days (reference value: 0 %); type: functional; details: 168 h, time 7 day
Staphylococcus aureus [14] = assay: Antibacterial activity against methicillin-resistant Staphylococcus aureus clinical isolate 16-1 infected in kunming mouse model assessed as survival rate at 7 mg/kg, iv pre-infected with bacteria for 10 mins followed by compound administration and measured for 7 days (reference value: 0 %); type: functional; details: 168 h, time 7 day

| MIC (Staphylococcus aureus [1]) | Compound | other results |
| --- | --- | --- |
| 3.12 µg/mL | CC(=O)NC(=S)NNC(=O)c1ccc(OCCCC(C)C)cc1 |  |
| 1.56 µg/mL | CC(=O)NC(=S)NNC(=O)c1ccc(OC2CCCCC2)cc1 |  |
| 0.58 µM | CCC1CCC(c2ccc(C(=O)NNC(=S)NC(C)=O)cc2)CC1 (stereo unspecified) | pIC50 (DNA gyrase [5]): 6.64; CC50 at 48 h [6]: 26 nM; CC50 at 48 h [7]: 67 nM; selectivity ratio [8]: 0.05; selectivity ratio [9]: 0.12 |
| > 100 µg/mL | CCCCCCOc1ccc(C(=O)NNC(=S)NCC)cc1 |  |
| 12.5 µg/mL | CCCCCOc1ccc(C(=O)NNC(=S)NC(=O)C(C)C)cc1 |  |
| 6.25 µg/mL | CCCOc1ccc(C(=O)NNC(=S)NC(C)=O)cc1 |  |
| 1.22 µM | CC(=O)NC(=S)NNC(=O)c1ccc(C2CCCCC2)cc1 | pIC50 (DNA gyrase [5]): 5.72; CC50 at 48 h [6]: 120 nM; CC50 at 48 h [7]: 790 nM; selectivity ratio [8]: 0.1; selectivity ratio [9]: 0.65 |
| > 100 µg/mL | CCCCCOc1cccc(C(=O)NNC(=S)NC(C)=O)c1 |  |
| > 100 µg/mL | CCCCCOc1ccc(C(=O)NNC(=S)NC(=O)Cc2ccccc2)cc1 |  |
| > 100 µg/mL | CCCCCCOc1ccc(C(=O)NNC(N)=S)cc1 |  |
| 25 µg/mL | CCCCCOc1ccc(C(=O)NNC(=S)NC(C)=O)nc1 |  |
| 3.12 µg/mL | CCCCCOc1ccc(C(=O)NC(=S)NNC(C)=O)cc1 |  |
| 25 µg/mL | CCC(=O)NC(=S)NNC(=O)c1ccc(OC)cc1 |  |

Further lines, the molecule ahead of its results:

| Compound | MIC (Staphylococcus aureus [1]) | other results |
| --- | --- | --- |
| CC(=O)NC(=S)NNC(=O)c1ccccc1 | 50 µg/mL |  |
| O=C(NC(=S)NNC(=O)c1cccc(Cl)c1Cl)c1ccc([N+](=O)[O-])cc1 |  | MIC (Staphylococcus aureus [2]): > 62.5 µg/mL; pIC50 (Topoisomerase IV): < 4.00; MIC (Staphylococcus aureus [3]): 1.95 µg/mL (≈ 4.72 µM); pIC50 (DNA gyrase [4]): < 4.00 |
| CCCCCOc1ccc(CCC(=O)NNC(=S)NC(C)=O)cc1 | > 100 µg/mL |  |
| CCCCOc1ccc(C(=O)NNC(=S)NC(C)=O)cc1 | 1.56 µg/mL |  |
| CC(=O)NC(=S)NNC(=O)c1cccc(-c2ccccc2)c1 | 3.12 µg/mL |  |
| CC(=O)NC(=S)NNC(=O)c1ccc(Oc2ccccc2)cc1 | 3.12 µg/mL |  |
| CC(=O)NC(=S)NNC(=O)c1ccc(-c2ccccc2)cc1 | 1.56 µg/mL |  |
| CCCCCCOc1ccc(-c2nnc(NC(C)=O)o2)cc1 | > 100 µg/mL |  |
| CCCCCCOc1ccc(-c2nnc(NC(C)=O)s2)cc1 | > 100 µg/mL |  |
| CCCCCOc1ccc(C(=O)NNC(=S)NC(C)=O)c(C)c1 | 3.12 µg/mL |  |
| CCCCCOc1ccc(C(=O)NNC(=S)NC(C)=O)cc1OCCCCC | 6.25 µg/mL |  |
| CN[C@H](CC(C)C)C(=O)N[C@H]1C(=O)N[C@@H](CC(N)=O)C(=O)N[C@H]2C(=O)N[C@H]3C(=O)N[C@H](C(=O)N[C@H](C(=O)O)c4cc(O)cc(O)c4-c4cc3ccc4O)[C@H](O)c3ccc(c(Cl)c3)Oc3cc2cc(c3O[C@@H]2O[C@H](CO)[C@@H](O)[C@H](O)[C@H]2O[C@H]2C[C@](C)(N)[C@H](O)[C@H](C)O2)Oc2ccc(cc2Cl)[C@H]1O [VANCOMYCIN] | 1.56 µg/mL | MIC (Staphylococcus aureus [10]): 0.25 µg/mL (≈ 0.173 µM); survival at 10 mg/kg (Staphylococcus aureus [11]): 60%; survival at 5 mg/kg (Staphylococcus aureus [12]): 50%; survival at 3.5 mg/kg (Staphylococcus aureus [13]): 20%; survival at 7 mg/kg (Staphylococcus aureus [14]): 50% |
| CC(=O)NC(=S)NNC(=O)c1ccc([N+](=O)[O-])cc1 | > 100 µg/mL |  |
| Cc1ccc(C(=O)NNC(=S)NC(=O)CC(C)C)cc1 | 12.5 µg/mL |  |
| CCCCCCCCCCCOc1ccc(C(=O)NNC(=S)NC(C)=O)cc1 | 100 µg/mL |  |
